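Values below derive from 48-hour exposures of cells grown in 96-well plates, with endpoints linearly interpolated between the two concentrations bracketing the appropriate inhibition level. TGI denotes the concentration required for complete inhibition of growth.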 Where a SMILES comes first, the peptide text is derived from it. The star is where a group is joined. Cbz = O=C(OCc1ccccc1)*
Columns and labels:
Experiment in all cases: NCI tumour cell line growth inhibition, 48 h
LOX IMVI melanoma = system: LOX IMVI melanoma
MCF7 breast = system: MCF7 breast
NCI-H522 lung = system: NCI-H522 lung
786-0 renal = system: 786-0 renal
RXF 393 renal = system: RXF 393 renal
CAKI-1 renal = system: CAKI-1 renal
IGROV1 ovarian = system: IGROV1 ovarian
NCI-H226 lung = system: NCI-H226 lung
SF-268 CNS = system: SF-268 CNS
SW-620 colon = system: SW-620 colon
UO-31 renal = system: UO-31 renal
SNB-19 CNS = system: SNB-19 CNS
NCI/ADR-RES ovarian = system: NCI/ADR-RES ovarian
UACC-62 melanoma = system: UACC-62 melanoma

Structure (SMILES) | TGI (LOX IMVI melanoma) | TGI (MCF7 breast) | TGI (NCI-H522 lung) | TGI (786-0 renal) | TGI (RXF 393 renal) | TGI (CAKI-1 renal) | TGI (IGROV1 ovarian) | TGI (NCI-H226 lung) | TGI (SF-268 CNS) | TGI (SW-620 colon) | TGI (UO-31 renal) | TGI (SNB-19 CNS) | TGI (NCI/ADR-RES ovarian) | TGI (UACC-62 melanoma)
Cc1ccc(/C=N/Nc2ncccn2)s1 | > 100 µM | > 100 µM | > 100 µM | > 100 µM | > 100 µM | > 100 µM | > 100 µM | > 100 µM | > 100 µM | > 100 µM | > 100 µM | > 100 µM | > 100 µM | > 100 µM
Cc1nc2c(-c3ccccc3)[nH]c(C)c2c(=O)o1 | > 100 µM | 37.7 µM | > 100 µM | > 100 µM | > 100 µM | > 100 µM | > 100 µM | > 100 µM | > 100 µM | > 100 µM | > 100 µM | > 100 µM | > 100 µM | > 100 µM
Clc1nc2c(-c3cccs3)ncnc2n1Cc1ccccc1 | > 100 µM | > 100 µM | > 100 µM | 59.5 µM | 51.2 µM | > 21 µM | > 100 µM | > 100 µM | > 100 µM | > 70.5 µM | 1.09 µM | > 78.3 µM | > 100 µM | > 100 µM
Fc1ccc(C(OCCN2CCC3CCC(C2)N3Cc2cc3ccccc3[nH]2)c2ccc(F)cc2)cc1 (stereo unspecified) | 3.18 µM | 3.57 µM | 2.84 µM | 3.08 µM | 3.12 µM | 5.69 µM | 2.79 µM | 3.41 µM | 4.12 µM | 3.78 µM | 3.42 µM | 7.55 µM | 3.1 µM | 4.46 µM
CCC(=O)NCCc1c[nH]c2ccc(OC)cc12 | > 100 µM | > 100 µM | > 100 µM | > 100 µM | > 100 µM | > 100 µM | > 100 µM | > 100 µM | > 100 µM | > 100 µM | > 100 µM | > 100 µM | > 100 µM | > 100 µM
COC(=O)C1=C(C)NC(C)=C([N+](=O)[O-])C1c1cccc(NO)c1 (stereo unspecified) | 15.5 µM | 27.2 µM | 13.9 µM | > 87.9 µM | > 85.4 µM | > 52.7 µM | 22.9 µM | > 47.3 µM | > 100 µM | 16.5 µM | 24.1 µM | > 100 µM | 46.6 µM | > 31.6 µM
CCOC(=O)C(C)NC(=O)C(C)NC(=O)C(C)NC(=O)C(C)NC(=O)C(C)NC(=O)C(C)NC(=O)C(C)NC(=O)OCc1ccccc1 (stereo unspecified) (Cbz-AAAAAAA-OEt; configuration not given here) | > 100 µM | > 100 µM | > 100 µM | > 100 µM | > 100 µM | > 100 µM | > 100 µM | > 100 µM | > 100 µM | > 100 µM | > 100 µM | > 100 µM | > 100 µM | > 100 µM
Nc1c(C(=O)c2ccccc2)[nH]c(NCc2ccccc2)c1C(=S)Nc1ccccc1 | > 100 µM | > 100 µM | > 100 µM | > 100 µM | > 100 µM | > 100 µM | > 100 µM | > 100 µM | > 100 µM | > 100 µM | > 100 µM | > 100 µM | > 100 µM | > 100 µM
COCN1C(=O)[C@@H]2CCCN2C(=O)c2cc([N+](=O)[O-])ccc21 | > 100 µM | > 100 µM | 44.6 µM | > 100 µM | 39.9 µM | > 100 µM | > 100 µM | > 100 µM | > 100 µM | > 100 µM | > 100 µM | > 100 µM | > 100 µM | > 100 µM

— PubChem BioAssay (NCI)
